For data set [1], the system named is stable flies. Briefly: stable fly laboratory repellent bioassay (blood-feeding). The class given is in vivo, Stomoxys calcitran. On the procedure: Comparisons of coconut oil, coconut FFA, and lauric acid against stable fly blood-feeding: Using our modified stable fly laboratory repellent bioassay, we tested coconut oil, coconut FFA and its major compositional compound, lauric acid, for their repellency against stable flies.
In FIG. 11, repellent activity tests were conducted under the laboratory conditions (22° C., 50% RH), 48-hr starved stable flies were used, and a total of at least 5 replicates were accumulated.

In data set [2] the test system is stable flies. Conditions: for knock-down times: 20 mg and 10 mg doses; for knock-down: lowest dose, 2 mg.
For data set [3], the system named is stable flies. As to the kind of experiment: stable fly laboratory repellent bioassay (blood-feeding). Conditions: for repellency of C8 to C18 acids: FIG. 3. The class given is in vivo, Stomoxys calcitran.
Data set [4] concerns bed bugs. As to the kind of experiment: bed bug petri-dish repellency assay. The class given is in vivo, Cimex letularius. The source says:
(§1) Bed bugs chose to rest on control tents (hexane-treated) when given a choice of coconut FFA-treated tent (FIG. 9C). This effect lasted on tents treated 14 d earlier.

Data set [5] concerns bed bugs. As to the kind of experiment: bed bug choice among treated tents (harborages). The class given is in vivo, Cimex letularius. As to conditions: control (hexane) vs treated tent.
From the text: as §1

Data set [6] concerns Aedes aegypti. As to the kind of experiment: minimum effective dosage for biting protection. Conditions: N = 3-5. The data set is classed as in vivo.
Data set [7] concerns Aedes aegypti. Briefly: arm-in-cage assay, biting protection. The class given is in vivo. As to conditions: 1st hour, N = 3.
Data set [8] has as its system horn flies. As to the kind of experiment: horn fly blood-feeding repellency. The data set is classed as in vivo, Haematobia irritans. As for the experimental part:
Comparisons of coconut FFA, methyl laurate, and lauric acid against horn fly blood-feeding: We also tested coconut FFA and its major compositional compound, lauric acid, for their repellency against horn flies. […] F=41.5 P<0.0001). Dose response curves of repellency against horn flies from coconut FFA and lauric acid: […] F=4.08-4.38 P<0.05). […] A 50% repellency was shown when the dose was reduced to 2 mg. No significant differences in the least repellency concentrations were found among the two repellent candidates, with average 7 mg of both coconut FFA and lauric acid was needed.

For data set [9], the system named is horn flies. Briefly: mortality of horn flies after exposure. The class given is in vivo. The source says: The present invention discloses a blood-sucking insects and biting insects (e.g., stable flies, horn flies, ticks and mites repellent compounds (e.g., lauric acid), identified from coconut oil that is listed as a GRAS (Generally Recognized as Safe, http://www.fda.gov/Food/IngredientsPackagingLabeling/GRAS/) substance. Coconut oil is an edible oil extracted from the kernel or meat of mature coconuts harvested from the coconut palm (https://en.wikipedia.org/wiki/Coconut_oil). It contains a high level of low molecular weight saturated fatty acids (Gervajio, G. C., Fatty acids and derivatives from coconut oil, IN: Bailey's Industrial Oil and Fat Products, Sixth Edition, Six Volume Set, Fereidoon Shahidi, Ed., 2005, John Wiley & Sons, Inc.). […] Both have over 2-weeks longevity deterring stable fly feeding (>90% repellency). […] This compound is listed as one of CFR 21 products that is permitted for direct addition to food for human consumption by FDA (Code of Federal Regulations, Title 21). […]

Another data set deals with ticks. As to the kind of experiment: tick repellency (species not stated). The data set is classed as in vivo. Conditions: at 1.25%.

Read-outs that look alike come from different tables or passages of the source. Marks after values point to notes of the source that are not given here.

`CCCCCCCC(=O)OC` [C8 Me, Methyl octanoate]: in the data set with stable flies [1] (2 mg dose), the “repellency against stable flies” value is listed as “strongest repellency”. In the data set with stable flies [1] (20 mg dosage), the “repellency against stable flies” value was 100%. Also, in the data set with stable flies [2], the “knock-down times” value is recorded as “significantly shorter knock-down times” and the knock-down entry is given as “no knock-down”.
As to `CCCCCCCC(=O)O` [C8 acid, Caprylic acid], the “repellency of C8 to C18 acids” value in the data set on stable flies [3] (dose not stated) is given as over 80%.
Turning to `CCCCCCCCC(=O)O` [C9], the “repellency of C8 to C18 acids” value in the data set with stable flies [3] (dose not stated) was “strongest repellency”.
For the compound `CCCCCCCCCC(=O)OC` [C10 Me, Methyl decanoate], the “repellency against stable flies” value in the data set on stable flies [1] (20 mg dosage) turned out to be 100%. The “knock-down times” value in the data set with stable flies [2] is reported as “significantly shorter knock-down times”. For the same compound, in the data set with stable flies [2] (in vivo), the mortality is about 100%. In the data set on stable flies [2] (stable flies), the knock-down time result is listed as “less than 3 mins” and the “toxic effect” value is “most active toxicant”. Besides, the “time to mortality after exposure” value in the data set with stable flies [2] (stable flies, listed as 10 Me ester) is 10 to 15 min. For the same compound, the “time to mortality after exposure” value with stable flies [2] (stable flies, listed as C10 methyl ester) is under 10 min.
With `CCCCCCCCCCC(=O)O` [C11], the “repellency of C8 to C18 acids” value in the data set with stable flies [3] (dose not stated) is “strongest repellency”.
`CCCCCCCCCCCCC(=O)O` [C13]: the “repellency of C8 to C18 acids” value with stable flies [3] (dose not stated) is recorded as “strongest repellency”.
As for `CCN(CC)C(=O)c1cccc(C)c1` [DEET, N,N-diethyl-m-toluamide, reference compound], the repellency remaining entry in the data set on bed bugs [4] (7th day after application (FIG. 9B)) is “below 40%”. Further, the “choice of control tents over treated tents” value with bed bugs [5] was “no longer significant at 7 d and 14 d”. In addition, in the data set with Aedes aegypti [6], the “Minimum effective dosage required for biting protection” value was 0.047 ± 0.000 mg/cm^2. Further, the biting protection is listed as 58-88* % in the data set with Aedes aegypti [7] (6.25%), 77-97* % in the data set on Aedes aegypti [7] (12.50%) and “≈93* %” in the data set on Aedes aegypti [7] (25% (0.42 mg/cm^2)).
As to `CCCCCCCCCCCC(=O)O` [lauric acid], in the data set with stable flies [1] (2 mg dose), the “repellency against stable flies” value is recorded as “No repellency”. Moreover, in the data set on stable flies [1] (in vivo), the “LR50 (95% C.I.), least repellency concentration” value is 3.69 (3.23-6.53) mg/24 cm^2. Besides, in the data set on stable flies [1] (in vivo), the “LR90 (95%, C.I.), least repellency concentration” value is 13.61 (9.11-32.59) mg/24 cm^2. Further, in the data set on stable flies [1] (in vivo), the “average amount needed to achieve 90% repellency” value is 13 mg. Further, the “repellency against horn flies” value in the data set with horn flies [8] (2 mg dose) came to 50%. Also, in the data set on horn flies [8] (in vivo), the “least repellency concentration, average amount needed” value is reported as 7 mg. For the same compound, in the data set on bed bugs [4] (at 5%), the effectiveness duration entry is on record as “up to 24 hours”. Moreover, the repellency against bedbugs with bed bugs [4] (at 5%) turned out to be 100%. Further, the “Minimum effective dosage required for biting protection” value in the data set with Aedes aegypti [6] is reported as 0.75 mg/cm^2; with Aedes aegypti [6] (listed as Lauric acid) it was 0.750 ± 0.000 mg/cm^2. Moreover, the biting protection in the data set with Aedes aegypti [7] (6.25%) is 20 ± 0%; with Aedes aegypti [7] (12.50%), 20 ± 0%; in the data set with Aedes aegypti [7] (25% (0.42 mg/cm^2)) it was 73%; with Aedes aegypti [7] (25% (0.42 mg/cm^2), listed as Lauric acid), 74 ± 6%; with Aedes aegypti [7] (50%) it was 60 ± 11%. Further, the “toxic effect” value with stable flies [2] (stable flies) is recorded as “no toxic effect”. For the same compound, in the data set on stable flies [3] (2-week longevity test (FIG. 5)), the “repellency in longevity test” value is listed as 94%.
Take `CCCCCCCCCCCC(=O)OC` [methyl laurate]: in the data set with horn flies [9] (horn flies), the “time to mortality after exposure” value is 15 to 20 min. In addition, the mortality in the data set on horn flies [9] (horn flies after exposure) worked out at 100%. In the data set with ticks, this compound returned a repellency against ticks of 100%. Further, the knock-down result in the data set on stable flies [2] was “no knock-down”. In the data set on stable flies [2] (stable flies), the “mean LD” value lay in the range of 11 to 20 min, the “time to mortality after exposure” value was 15 to 20 min and the “toxic effect” value is “least toxic compound”. The compound further had a mortality in the data set with stable flies [2] (stable flies after exposure) of 100%. Moreover, the “repellency against stable flies” value with stable flies [3] (20 mg dosage, listed as C12 Me) turned out to be 100%. The “repellency of methyl esters” value in the data set on stable flies [3] (initial bioassays, dose not stated) is about 100%.
Turning to `CCCCCCCC/C=C\CCCCCCCC(=O)OC` [methyl oleate], the “repellency against stable flies” value in the data set with stable flies [1] (20 mg dosage) is recorded as “did not showed significant repellency”.

As usually defined, the mortality is the percentage killed. Read a high mortality as a strong lethal effect.

Source of the values: patent US20190141999A1, “Methods For Repelling Blood-Sucking And Biting Insects, Ticks And Mites” (The United States of America, as represented by the …, priority 2017, published 2019).
